This is an account of results in patent publication US20100168120A1, “SALTS OF PYRIDAZINE COMPOUNDS” (NEUROMEDIX INC., priority 2006, published 2010).

“Also recorded” adds a separate entry of the source. Like-named read-outs stand apart in the source and are kept apart here.

Data set [1] concerns NO production. The experiment in a line: Inhibition of NO production (glial activation). Type of data set: cell-based. The settings on record: read-out: NO, concentration required for 50% inhibition.
Data set [2] in a line: logP by octanol/water partition coefficient.
Data set [3] is described as follows: In vitro metabolic stability in rat liver microsomes. Type of data set: in vitro ADME. The settings on record: 5 μM or 25 μM, 10 or 30 min. As to the method: (§1) In particular FIG. 3 are bar graphs showing that MW01-9-034WH has improved metabolic stability in rat (A) and human (B) liver microsome incubations compared to minaprine. […] Extracts were prepared, and the amount of compound remaining was analyzed by HPLC using internal standards for recovery.
On the technique in general: Microsomes from liver hold many membrane-bound enzymes, among them those of drug oxidation.

Data set [4] in a line: In vitro metabolic stability in human liver microsomes. Type of data set: in vitro ADME. The settings on record: 5 μM or 25 μM, 10 or 30 min. The procedure: as §1
Data set [5] has as its system IL-1β production. Description: Inhibition of IL-1β production (glial activation). Type of data set: cell-based. The settings on record: in words.
A short description of data set [6]: Chemical stability in water, dilute acid or dilute base. The data set is classed as physicochemical. The settings on record: dilute acid, or dilute base at 37° C. over one week.
Data set [7] is described as follows: in vivo. As to the method:
Plasma samples obtained from dog pharmacokinetic studies were analyzed using reversed phase HPLC with tandem mass spectrometric detection. Briefly, aliquots of internal standard (200 μl of 200 ng/ml) were added to protein precipitation plates (Sirocco protein precipitation plates, Waters Corporation, Milford, Mass., USA), followed by addition of plasma sample to the plate (50 μl). The plate was shaken for 3 minutes, and then a vacuum (maximum of −10 mm Hg) was applied to the plate for 3 minutes. Extract (75 μl) was transferred into a 2 ml 96-well plate, and to each sample was added 1425 μl of Eluent A (95:5:0.1 MilliQ water:acetonitrile:formic acid). 10 μl was injected onto the reverse phase column (ODS C18; 4×2 mm i.d.; Phenomenex, Torrance, USA). The mobile phase was set to 300 μl/min and eluate by mass spectrometry (APT 5000, Applied Biosystems). Calibration standards were processed along with the samples, and the concentration of Minozac [2-(4-(4-methyl-6-phenylpyridazin-3-yl)piperazin-1-yl)pyrimidine dihydrochloride salt] determined using a regression equation. […] The internal standard was compound code MW01-8-064WH (chemical name: 4-methyl-3-phenyl-6-((4-pyrimidin-2-yl)piperazin-1-yl)pyridazine).
The pharmacokinetics of Minozac was determined at 2.5 mg/kg following oral administration by gavage of an aqueous solution.
Intravenous dosing was also carried out at 2.5 mg/kg, but with drug in a 0.9% saline solution.
The pharmacokinetics were determined following oral dosing with a neutralized propylene glycol formulation (FIG. 6) and with filled gelatin capsules at a single dose of 2.5 mg/kg (FIG. 7).

Data set [8] concerns human amyloid-beta (Aβ)-induced injury. Description: AD-relevant mouse model of human Aβ-induced injury (Aβ infusion model). The settings on record: hippocampus, […] oral once daily for 2 weeks, dihydrochloride salt. The data set is classed as in vivo. As to the method:
The efficacy of Minozac in an AD-relevant mouse model of human amyloid-beta (Aβ)-induced injury (infusion of human Aβ peptide) was determined. Briefly, C57BL/6 mice (n=5-10 mice per group) were subjected to either vehicle (Control) or human oligomeric Aβ1-42 intracerebroventricular (ICV) infusion for four weeks. […] Beginning at day 50 after the start of Aβ ICV infusion, the Y-maze test of spontaneous alternation was used to evaluate hippocampus-dependent spatial learning deficits. At day 60 after the start of Aβ ICV infusion, mice were sacrificed, perfused with buffer containing a protease inhibitor cocktail, and the brain was harvested. The brain was longitudinally bisected and the right half of the brain used for histology. The hippocampus was dissected from the left half of the brain. The levels of IL-1β, TNFα, S100B and synaptophysin were measured in hippocampal extracts by ELISA, and postsynaptic density-95 ([…]) levels were determined by Western blotting. Immunohistochemical detection of GFAP-positive astrocytes and F4/80 positive microglia was performed on 10 μm sections.

Data set [9] deals with LPS inflammation model. Description: Systemic proinflammatory cytokine expression after LPS challenge. The data set is classed as in vivo, mouse. The settings on record: 15 mg/kg orally for 14 days, LPS challenge day 15, serum at 6 hours. As to the method:
The effect of Minozac on the systemic expression of proinflammatory cytokines was determined. Briefly, saline (0.9% NaCL) or Minozac (15 mg/kg) was administered orally for 14 days. Mice were challenged with LPS at the 15th day. Mice were sacrificed at 6 hours after LPS challenge and blood harvested for serum. The levels of cytokines TNFα and […] in the serum were measured using the Meso-scale Discovery system according to manufacturer's instructions. The data for TNFα and IL-1β are shown in FIG. 4 as percent of the level observed in the saline treated mice.

Data set [10] in a line: physchem. The settings on record: 37 °C, water, aqueous solubility.
A short description of data set [11]: PK assessment in mice, plasma and brain after single oral dose. The settings on record: C57BL/6, mouse.

Turning to `c1ccc(-c2cc(-c3ccccc3)c(N3CCN(c4ncccn4)CC3)nn2)cc1` [Compound 1, 4,6-diphenyl-3-(4-pyrimidin-2-ylpiperazin-1-yl)pyridazine], the IC50 in [1] was above 25 µM. Besides, the logP in [2] (octanol/water) came to 2.3.

As for `Cc1cc(-c2ccccc2)nnc1NCCN1CCOCC1` [minaprine, reference compound], the “metabolic stability, compound remaining” value in data set [3] and in [4] was “majority of minaprine is gone by 10 min” each time.

In the case of `Cc1cc(-c2ccccc2)nnc1N1CCN(c2ncccn2)CC1` [Compound 5, 4-methyl-6-phenyl-3-(4-pyrimidin-2-ylpiperazin-1-yl)pyridazine], the “selective suppression of IL-1 production compared to NO production” value in data set [5] is reported as “retained selective suppression”. In addition, the IC50 in data set [1] was above 25 µM.

`Cc1cc(-c2ccccc2)nnc1N1CCN(c2ncccn2)CC1.Cl.Cl` [Compound 6]: in data set [5], the “selective suppression of IL-1 production compared to NO production” value is reported as “lost selectivity”.

With `Cc1cc(-c2ccccc2)nnc1N1CCN(c2ncccn2)CC1.Cl.Cl` [Compound 16, 2-(4-(4-methyl-6-phenylpyridazin-3-yl)piperazin-1-yl)pyrimidine dihydrochloride salt], the “loss of material (chemical stability)” value in data set [6] was “less than 10%”. The “metabolic stability, compound remaining” value in data set [3] and in data set [4] was “stable even after 30 min incubation” in each case. For the same compound, the Vd in data set [7] (Beagle, dog, iv, […], Vss) is 44.5 ± 10.3 L; in data set [7] (Beagle, dog, iv, […], Vz) it was 95.1 ± 43.6 L. The half-life in data set [7] (in vivo, iv, […]) is 4.49 h; in data set [7] (in vivo, po, […]), 2.1 h; in data set [7] (male, Beagle, dog, po, […], t1/2), 1.47 h; in data set [11] (brain), around 0.75 h; in [11] (plasma), around 0.25 h. For the same compound, the bioavailability in data set [7] (in vivo, po, […]) was 23%; in data set [7] (male, Beagle, dog), 16%; in [7] (male, Beagle, dog, po), 21%. For the same compound, the entries for the “number of activated F4/80-positive microglia” value in data set [8], in data set [8] (listed as MW01-9-034WH) and in data set [8] (listed as Minozac) were “reduced”, “decreases” and “reduced”, respectively. Moreover, in data set [9], the “systemic (serum) expression of IL-1β” value is recorded as “no effect”. In data set [9], the “systemic (serum) expression of TNFα” value is “no effect”. The compound also showed a solubility in [10] above 322 mg/mL. Moreover, the logP is 2.29 in data set [2] and 2.7 in data set [2] (octanol/water). In addition, in data set [11] (brain), the Tmax is around 0.25 h.

For the compound `Cc1cc(-c2ccccc2)nnc1N1CCN(C)CC1` [Compound 11], the “activity (suppression of proinflammatory cytokine production in glia)” value in data set [5] is “loss of activity; also recorded: diminution of activity”.

What is called logP is a log measure of how a compound divides between an organic and an aqueous phase. One may read the Vd as a proportionality between amount in the body and measured concentration, not a real space. Usually half-life stands for the time in which the quantity being followed falls by half. Higher therefore signals slow loss. As usually defined, the bioavailability is the share of a dose that reaches the circulation, judged against a reference dose that is usually intravenous. Broadly, the solubility is the dissolved amount per volume that the medium holds. Read a low solubility as a poorly soluble substance. As usually defined, the Tmax is the time from dosing to the highest level.
